Tests used:
[1] = Inhibition of beta-lactamase AmpC (unknown origin) by UV-Vis spectrophotometry
[2] = Competitive inhibition of beta-lactamase AmpC (unknown origin) by Lineweaver-Burk plot analysis
[3] = Reversible competitive inhibition of beta-lactamase AmpC (unknown origin)

For O=C(O)c1ccc(NS(=O)(=O)c2ccsc2C(=O)O)cc1, which Ki [1] is on record?
Its Ki is 1.7 µM.

With Cc1ccc(CNS(=O)(=O)c2ccsc2C(=O)O)cc1 as the compound, how does the Ki [1] read?
Its Ki is 58 µM.

For O=C(O)c1sccc1S(=O)(=O)NCc1ccc(Cl)cc1, which Ki [1] is on record?
The Ki was 112 µM.

Which Ki [1] does the source give for O=C(O)c1ccc(CNS(=O)(=O)c2ccsc2C(=O)O)cc1 here?
The Ki was 18 µM.

For O=C(O)c1ccc(CCNS(=O)(=O)c2ccsc2C(=O)O)cc1, which Ki [2] is on record?
Its Ki is 26 µM.

Which Ki [1] does the source give for O=C(O)c1ccc(CCCNS(=O)(=O)c2ccsc2C(=O)O)cc1 here?
The Ki was 19 µM.

For O=C(O)c1sccc1S(=O)(=O)Nc1ccc(Cl)cc1, which Ki [3] is on record?
Its Ki is 26 µM.

Source: ChEMBL document CHEMBL3286217, “Structure-based efforts to optimize a non-β-lactam inhibitor of AmpC β-lactamase” (Bioorg Med Chem, 2014)
